Laboratory results taken from the NIST ThermoML archive (doi:10.1021/je034002l).

Experiment: xn = mol fraction of the nth substance listed
Conditions: 101.3 kPa, Liquid

CCCCCCCl [1-chlorohexane] + CCCCCC
Conditions	mass density [kg/m3]	viscosity [mPa·s]
293.15 K, x1 = 0.1	683.01	0.3403
293.15 K, x1 = 0.15	694.01	0.3532
293.15 K, x1 = 0.2	706.37	0.3669
293.15 K, x1 = 0.3	728.21	0.3965
293.15 K, x1 = 0.5	771.87	0.4691
293.15 K, x1 = 0.7	815.39	0.5662
293.15 K, x1 = 0.9	856.91	0.6932
293.15 K, x1 = 1	878.52	0.7704
298.15 K, x1 = 0.1	678.51	0.3263
298.15 K, x1 = 0.15	689.61	0.3384
298.15 K, x1 = 0.2	701.84	0.352
298.15 K, x1 = 0.3	723.73	0.3794
298.15 K, x1 = 0.5	767.36	0.4464
298.15 K, x1 = 0.7	810.91	0.5367
298.15 K, x1 = 0.9	852.37	0.6495
298.15 K, x1 = 1	873.75	0.7173
303.15 K, x1 = 0.1	673.93	0.313
303.15 K, x1 = 0.15	685.15	0.3245
303.15 K, x1 = 0.2	697.27	0.3377
303.15 K, x1 = 0.3	719.21	0.3632
303.15 K, x1 = 0.5	762.82	0.4254
303.15 K, x1 = 0.7	806.39	0.5094
303.15 K, x1 = 0.9	847.8	0.6103
303.15 K, x1 = 1	868.98	0.6702
308.15 K, x1 = 0.1	669.37	0.2998
308.15 K, x1 = 0.15	680.63	0.3107
308.15 K, x1 = 0.2	692.67	0.3233
308.15 K, x1 = 0.3	714.64	0.3475
308.15 K, x1 = 0.5	758.26	0.4061
308.15 K, x1 = 0.7	801.83	0.4844
308.15 K, x1 = 0.9	843.21	0.5754
308.15 K, x1 = 1	864.21	0.6283
313.15 K, x1 = 0.1	664.73	0.2881
313.15 K, x1 = 0.15	676.04	0.2985
313.15 K, x1 = 0.2	688.03	0.3109
313.15 K, x1 = 0.3	710.03	0.3337
313.15 K, x1 = 0.5	753.66	0.3884
313.15 K, x1 = 0.7	797.24	0.4614
313.15 K, x1 = 0.9	838.59	0.5436
313.15 K, x1 = 1	859.44	0.591
318.15 K, x1 = 0.1	660.04	0.2765
318.15 K, x1 = 0.15	671.39	0.2865
318.15 K, x1 = 0.2	683.36	0.2984
318.15 K, x1 = 0.3	705.37	0.3201
318.15 K, x1 = 0.5	749.03	0.372
318.15 K, x1 = 0.7	792.61	0.4402
318.15 K, x1 = 0.9	833.95	0.5152
318.15 K, x1 = 1	854.67	0.558
323.15 K, x1 = 0.1	655.31	0.266
323.15 K, x1 = 0.15	666.68	0.2755
323.15 K, x1 = 0.2	678.65	0.2868
323.15 K, x1 = 0.3	700.66	0.3076
323.15 K, x1 = 0.5	744.37	0.3569
323.15 K, x1 = 0.7	787.95	0.4208
323.15 K, x1 = 0.9	829.29	0.4899
323.15 K, x1 = 1	849.9	0.5285
328.15 K, x1 = 0.1	650.53	0.256
328.15 K, x1 = 0.15	661.91	0.2652
328.15 K, x1 = 0.2	673.9	0.2759
328.15 K, x1 = 0.3	695.91	0.2959
328.15 K, x1 = 0.5	739.68	0.3428
328.15 K, x1 = 0.7	783.25	0.4027
328.15 K, x1 = 0.9	824.61	0.4666
328.15 K, x1 = 1	845.12	0.5019
333.15 K, x1 = 0.1	645.7	0.2468
333.15 K, x1 = 0.15	657.07	0.2556
333.15 K, x1 = 0.2	669.12	0.2658
333.15 K, x1 = 0.3	691.11	0.2849
333.15 K, x1 = 0.5	734.96	0.3297
333.15 K, x1 = 0.7	778.51	0.3862
333.15 K, x1 = 0.9	819.9	0.4455
333.15 K, x1 = 1	840.35	0.4778
